The supplement of paper PMC10307832

Tests used:
Test in all cases: relative viability (nuclei count vs DMSO), 5 days (fraction); higher = more cells survive
Motesanib + Pemetrexed = compound: CC1(C)CNc2cc(NC(=O)c3cccnc3NCc3ccncc3)ccc21 [Motesanib] + Nc1nc2[nH]cc(CCc3ccc(C(=O)N[C@@H](CCC(=O)O)C(=O)O)cc3)c2c(=O)[nH]1 [Pemetrexed] (partner 0.2 µM)
Summary of the method: (§1)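 Each reported value is a median over duplicate plates. It expresses relative viability: treated-well nuclei count divided by vehicle-well nuclei count. Lung cancer cell lines in 1536-well plates were dosed by pin tool a day after seeding, alone with one drug or with a fixed anchor-drug dose plus five library-drug doses (not always all listed) in √10 steps, and nuclei were counted after 5 days.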

[1] = compound: C[C@@]1(C(=O)Nc2ccc(F)nc2)CCCN1c1nc(Nc2cc(C3CC3)n[nH]2)c2cccn2n1 + COc1cccc2cc(-c3nc([C@H]4CC[C@H](C(=O)O)CC4)n4ncnc(N)c34)[nH]c12 [OSI-027] (partner 0.5 µM)
Summary of the method: as §1

[2] = compound: C[C@@]1(C(=O)Nc2ccc(F)nc2)CCCN1c1nc(Nc2cc(C3CC3)n[nH]2)c2cccn2n1 + Nc1ncn([C@H]2C[C@H](O)[C@@H](CO)O2)c(=O)n1 [Decitabine] (partner 2 µM)
Summary of the method: as §1

[3] = compound: C[C@@]1(C(=O)Nc2ccc(F)nc2)CCCN1c1nc(Nc2cc(C3CC3)n[nH]2)c2cccn2n1 + O=C(c1cc(Cc2n[nH]c(=O)c3ccccc23)ccc1F)N1CCN(C(=O)C2CC2)CC1 [Olaparib] (partner 8 µM)
Summary of the method: as §1

Cell Line | relative viability (Motesanib + Pemetrexed; first compound 0.01 µM) | relative viability (Motesanib + Pemetrexed; first compound 0.03162 µM) | relative viability (Motesanib + Pemetrexed; first compound 0.1 µM) | relative viability (Motesanib + Pemetrexed; first compound 0.3162 µM) | relative viability (Motesanib + Pemetrexed; first compound 1 µM) | relative viability ([1]; first compound 0.04 µM) | relative viability ([1]; first compound 0.1265 µM) | relative viability ([1]; first compound 0.4 µM) | relative viability ([1]; first compound 1.265 µM) | relative viability ([2]; first compound 0.04 µM) | relative viability ([2]; first compound 0.1265 µM) | relative viability ([2]; first compound 0.4 µM) | relative viability ([2]; first compound 1.265 µM) | relative viability ([3]; first compound 0.04 µM) | relative viability ([3]; first compound 0.1265 µM) | relative viability ([3]; first compound 0.4 µM) | relative viability ([3]; first compound 1.265 µM)
NCI-H1993 | 0.452 | 0.623 | 0.533 | 0.641 | 0.57 | 0.545 | 0.533 | 0.665 | 0.605 | 0.532 | 0.522 | 0.486 | 0.458 | 0.926 | 0.88 | 0.492 | 0.662
RERF-LC-KJ | 0.471 | 0.502 | 0.495 | 0.472 | 0.527 | 0.51 | 0.306 | 0.334 | 0.346 | 0.662 | 0.629 | 0.468 | 0.467 | 0.892 | 0.858 | 0.737 | 0.345
NCI-H23 | 0.645 | 0.624 | 0.518 | 0.447 | 0.545 | 0.397 | 0.232 | 0.225 | 0.266 | 0.274 | 0.253 | 0.258 | 0.271 | 0.252 | 0.227 | 0.225 | 0.21
HCC-366 | 0.189 | 0.154 | 0.18 | 0.147 | 0.143 | 0.861 | 0.585 | 0.462 | 0.437 | 0.315 | 0.292 | 0.265 | 0.265 | 0.364 | 0.256 | 0.254 | 0.215
EMC-BAC-2 | 0.412 | 0.408 | 0.471 | 0.412 | 0.524 | 0.299 | 0.274 | 0.241 | 0.251 | 0.709 | 0.737 | 0.578 | 0.717 | 0.406 | 0.368 | 0.312 | 0.334
NCI-H2405 | 1.05 | 1.11 | 1.02 | 1.11 | 1.02 | 0.401 | 0.294 | 0.269 | 0.272 | 0.68 | 0.487 | 0.488 | 0.576 | 0.808 | 0.611 | 0.598 | 0.511
NCI-H358 | 0.161 | 0.162 | 0.169 | 0.164 | 0.166 | 0.415 | 0.179 | 0.15 | 0.138 | 0.212 | 0.146 | 0.165 | 0.116 | 0.477 | 0.311 | 0.183 | 0.233
NCI-H1944 | 0.58 | 0.628 | 0.565 | 0.554 | 0.442 | 0.306 | 0.256 | 0.225 | 0.235 | 0.372 | 0.377 | 0.376 | 0.386 | 0.413 | 0.394 | 0.362 | 0.492
NCI-H1648 | 0.707 |  |  | 0.674 | 0.547 | 0.25 |  |  | 0.229 | 0.465 | 0.464 | 0.416 | 0.361 | 0.446 | 0.746 | 0.422 | 0.7
EPLC-272H | 0.656 | 0.285 | 0.254 | 0.273 | 0.243 | 0.301 |  | 0.24 | 0.189 | 0.348 | 0.306 | 0.279 | 0.336 | 0.792 | 0.513 | 0.489 | 0.571
NCI-H1915 | 0.54 | 0.484 | 0.451 | 0.463 | 0.442 | 0.612 | 0.628 | 0.592 | 0.604 | 0.266 | 0.278 | 0.251 | 0.258 | 0.266 | 0.257 | 0.242 | 0.257
NCI-H596 | 0.509 | 0.503 | 0.444 | 0.306 | 0.358 | 0.63 | 0.557 | 0.555 | 0.793 | 1.08 | 0.977 | 0.96 | 0.912 | 0.714 | 0.697 | 0.608 | 0.571
NCI-H322M | 0.681 | 0.627 | 0.556 | 0.691 | 0.605 | 0.483 | 0.364 | 0.363 | 0.321 | 0.658 | 0.533 | 0.494 | 0.547 | 0.473 | 0.552 | 0.596 | 0.664
NCI-H2342 | 0.8 | 0.748 | 0.795 | 0.794 | 0.912 | 0.636 | 0.561 | 0.448 | 0.479 | 0.685 | 0.636 | 0.559 | 0.671 | 0.438 | 0.449 | 0.336 | 0.329
NCI-H647 | 0.178 | 0.175 | 0.16 | 0.143 | 0.165 | 0.574 | 0.404 | 0.484 | 0.734 | 0.504 | 0.312 | 0.368 | 0.421 | 0.607 | 0.487 | 0.368 | 0.505
SK-MES-1 | 0.912 | 0.953 | 1.03 | 0.943 | 1.02 | 0.615 | 0.317 | 0.357 | 0.286 | 0.333 | 0.424 | 0.333 | 0.344 | 0.718 | 0.702 | 0.557 | 0.373

Cell Line | relative viability (Motesanib + Pemetrexed; first compound 0.01 µM) | relative viability (Motesanib + Pemetrexed; first compound 0.03162 µM) | relative viability (Motesanib + Pemetrexed; first compound 0.1 µM) | relative viability (Motesanib + Pemetrexed; first compound 0.3162 µM) | relative viability (Motesanib + Pemetrexed; first compound 1 µM) | relative viability ([1]; first compound 0.04 µM) | relative viability ([1]; first compound 0.1265 µM) | relative viability ([1]; first compound 0.4 µM) | relative viability ([1]; first compound 1.265 µM) | relative viability ([2]; first compound 0.04 µM) | relative viability ([2]; first compound 0.1265 µM) | relative viability ([2]; first compound 0.4 µM) | relative viability ([2]; first compound 1.265 µM) | relative viability ([3]; first compound 0.04 µM) | relative viability ([3]; first compound 0.1265 µM) | relative viability ([3]; first compound 0.4 µM) | relative viability ([3]; first compound 1.265 µM)
NCI-H2170 | 0.258 | 0.255 | 0.257 | 0.269 | 0.253 | 0.721 | 0.525 | 0.592 | 0.564 | 0.43 | 0.489 | 0.442 | 0.468 | 0.568 | 0.556 | 0.488 | 0.601
NCI-H2085 | 0.895 | 0.969 | 0.852 | 0.851 | 0.892 | 0.788 | 0.679 | 0.599 | 0.535 | 0.51 | 0.499 | 0.538 | 0.528 | 0.827 | 0.748 | 0.711 | 0.819
SW 1573 | 0.764 | 0.833 | 0.864 | 0.882 | 0.854 | 0.548 | 0.24 | 0.283 | 0.302 | 0.465 | 0.413 | 0.429 | 0.177 | 0.38 | 0.409 | 0.341 | 0.253
NCI-H441 | 0.243 | 0.234 | 0.238 | 0.259 | 0.196 | 0.405 | 0.322 | 0.313 | 0.328 | 0.24 | 0.213 | 0.23 | 0.223 | 0.373 | 0.368 | 0.345 | 0.332
LOU-NH91 | 0.357 | 0.37 | 0.373 | 0.406 | 0.382 | 0.65 | 0.665 | 0.59 | 0.563 | 0.774 | 0.874 | 0.744 | 0.771 | 0.932 | 0.945 | 0.828 | 0.908
NCI-H3122 | 0.186 | 0.191 | 0.184 | 0.202 | 0.219 | 0.499 | 0.86 | 0.275 | 0.412 | 0.361 | 0.337 | 0.349 | 0.386 | 0.633 | 0.571 | 0.581 | 0.723
NCI-H460 | 0.0586 | 0.0647 | 0.0699 | 0.0738 | 0.0745 | 0.538 | 0.252 | 0.29 | 0.313 | 0.506 | 0.446 | 0.413 | 0.346 | 0.495 | 0.334 | 0.346 | 0.23
NCI-H650 | 0.853 | 0.942 | 0.803 | 0.956 | 0.859 | 0.459 | 0.214 | 0.306 | 0.289 | 0.291 | 0.311 | 0.305 | 0.29 | 0.372 | 0.326 | 0.281 | 0.237
NCI-H661 | 0.862 | 0.925 | 0.887 | 0.986 | 0.961 | 0.592 | 0.564 | 0.249 | 0.529 | 0.528 | 0.514 | 0.54 | 0.547 | 0.742 | 0.849 | 0.778 | 0.634
NCI-H1793 | 0.862 | 0.894 | 0.843 | 0.856 | 0.853 | 0.254 | 0.195 |  | 0.196 | 0.362 | 0.428 | 0.429 | 0.429 | 0.751 | 0.668 | 0.475 | 0.772
NCI-H1734 | 0.408 | 0.386 | 0.333 | 0.272 | 0.265 | 0.42 | 0.29 | 0.268 | 0.293 | 0.456 | 0.389 | 0.405 | 0.437 | 0.506 | 0.405 | 0.385 | 0.436
LXF-289 | 0.704 | 0.845 | 0.898 | 0.896 | 0.57 | 0.633 | 0.463 | 0.407 | 0.353 | 0.361 | 0.385 | 0.394 | 0.383 | 1.07 | 1.1 | 0.933 | 1.07
H3255 | 0.552 | 0.59 | 0.602 | 0.589 | 0.587 | 0.523 | 0.555 | 0.397 | 0.447 | 0.587 | 0.622 | 0.521 | 0.65 | 0.638 | 0.643 | 0.523 | 0.548
201T | 0.307 | 0.326 | 0.318 | 0.296 | 0.342 | 0.519 | 0.356 | 0.35 | 0.306 | 0.813 | 0.714 | 0.671 | 0.862 | 0.755 | 0.725 | 0.729 | 0.9
NCI-H2126 | 0.683 | 0.715 | 0.615 | 0.695 | 0.655 | 0.469 | 0.311 | 0.256 | 0.344 | 0.539 | 0.389 | 0.36 | 0.471 | 0.67 | 0.643 | 0.575 | 0.76
